Reference: US11718612B2, “Inhibitors of receptor interacting protein kinase I for the treatment of disease” (Board of Regents, The University of Texas System, priority 2019, dated 2023)

Experiments:
[1] = molecular target: RIPK1 (Homo sapiens (Human), UniProt Q13546); assay: ADP-Glo kinase assay, RIPK1 activity; type: biochemical; details: 5 nM RIPK1, 50 μM ATP, 6 hr reaction
Protocol: In order to measure RIPK1 activity the ADP-Glo kinase assay (Promega, Catalog #V7002) was used to measure the conversion of ATP to ADP. This enzymatic assay was performed in a 384-well white, Optiplate (Perkin Elmer, Catalog #6007299) with assay buffer consisting of 50 mM HEPES pH 7.5 (Gibco, Catalog #15630-080), 50 mM NaCl (Teknova, Catalog #S0252), 30 mM MgCl2 (Ambion, Catalog #AM9530G), 1 mM DTT (Santa Cruz Biotechnology, Catalog #sc-29089), 0.05% BSA (Sigma, Catalog #A3059-50G) and 0.02% CHAPS (Sigma, Catalog #C5070-5G). Stock solutions of the test compounds were prepared in 100% DMSO (Sigma, Catalog #D2650) and serially diluted 1:3 using 100% DMSO. Compounds were additionally diluted 1:40 in assay buffer, and 2 μL/well were transferred to the assay plate. 4 μL/well (final concentration of 5 nM) of RIPK1 protein (SignalChem, Catalog #R07-11G-05) diluted in assay buffer and added to the assay plate followed by a 10 minute preincutation at room temperature. 4 μL/well of ATP (Promega, Catalog #V7002) (final concentration of 50 μM) diluted in assay buffer were then added to the assay plate followed by a 6 hr reaction time. Final concentrations of RIPK1 and ATP refer to a 10 μL volume. Luminescence was measured using a BioTek Synergy™ NEO plate reader. IC50 values were calculated using a four-parameter logistic curve fit using Genedata Screener software.

[2] = test system: U937 cells; assay: Human U937 cellular necroptosis assay; type: cell-based; details: U-937; U937 cells stimulated with 25 ng/mL human TNFalpha and 25 μM z-VAD-FMK; 22 hr; Cell Titer-Glo viability

RIPK1, sequence (Q13546 1-327): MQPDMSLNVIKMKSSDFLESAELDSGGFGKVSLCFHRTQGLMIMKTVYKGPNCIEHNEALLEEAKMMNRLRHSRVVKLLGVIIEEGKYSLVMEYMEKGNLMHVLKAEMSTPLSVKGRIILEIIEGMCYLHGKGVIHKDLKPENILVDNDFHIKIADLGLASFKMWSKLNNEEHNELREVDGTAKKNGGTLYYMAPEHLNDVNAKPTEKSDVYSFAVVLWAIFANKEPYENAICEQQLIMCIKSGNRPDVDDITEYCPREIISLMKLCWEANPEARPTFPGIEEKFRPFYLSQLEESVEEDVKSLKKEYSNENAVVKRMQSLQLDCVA

SMILES	IC50 [1] [nM]	IC50 [2] [nM]
O=C(Nc1cccc(Cl)c1F)c1ncn(Cc2cccc(F)c2)n1 [Example 88, N-(3-chloro-2-fluorophenyl)-1-(3-fluorobenzyl)-1H-1,2,4-triazole-3-carboxamide]	36.3	872
O=C(Nc1cccc(Cl)c1F)c1ncn(Cc2ccc(F)cn2)n1 [Example 89, N-(3-chloro-2-fluorophenyl)-1-((5-fluoropyridin-2-yl)methyl)-1H-1,2,4-triazole-3-carboxamide]	1600	5580
Cc1ccc(Cn2cnc(C(=O)Nc3cccc(Cl)c3F)n2)cn1 [Example 90]	1460	2600
O=C(Nc1cccc2nn[nH]c12)c1ncn(Cc2ccccc2)n1 [Example 100, N-(1H-benzo[d][1,2,3]triazol-7-yl)-1-benzyl-1H-1,2,4-triazole-3-carboxamide]	685	4140
O=C1c2nn(Cc3cc(F)ccc3F)c(Br)c2CCN1c1cccc(Cl)c1F [Example 101, 3-Bromo-6-(3-chloro-2-fluorophenyl)-2-(2,5-difluorobenzyl)-2,4,5,6-tetrahydro-7H-pyrazolo[3,4-c]pyridin-7-one]	17.4	16.2
O=C(Nc1cccc(Cl)c1F)c1ncn(Cc2ncccc2F)n1 [Example 102, N-(3-chloro-2-fluorophenyl)-1-((3-fluoropyridin-2-yl)methyl)-1H-1,2,4-triazole-3-carboxamide]	195	1260
